The source of these data is article PMC11003996 (Cell Discovery, 2024).

One assay concerns SARS-CoV-2 3CLpro T25V. Type of assay: biochemical.
The next assay concerns SARS-CoV-2 3CLpro T25I. Type of assay: biochemical.
Assay [1] concerns SARS-CoV-2 3CLpro T25V in HEK 293T cells. Type of assay: cell-based.
The subject of assay [2] is SARS-CoV-2 3CLpro M49I in HEK 293T cells. Type of assay: cell-based.
The subject of the next assay is SARS-CoV-2 3CLpro M49I. Type of assay: biochemical.
Assay [3] has as its system SARS-CoV-2 3CLpro L50F/E166V in HEK 293T cells. Type of assay: cell-based.

Where “and” joins values, the source holds several entries; their conditions need not be identical. Equal entries are not always repeated.

Turning to `Cn1cnc(Cn2c(=O)[nH]/c(=N\c3cc4cn(C)nc4cc3Cl)n(Cc3cc(F)c(F)cc3F)c2=O)n1` [ensitrelvir], the “Fold change in IC50 (relative to WT)” value with SARS-CoV-2 3CLpro T25V is recorded as 5.7; with SARS-CoV-2 3CLpro T25I it was 3.2; in the assay on SARS-CoV-2 3CLpro M49I it was 4.5. In addition, the “Inhibition of 3CLpro in HEK 293T cells: Fold change in IC50 (relative to WT)” value is 3.3 in assay [1]; 21.8 and ~20 in assay [2].

Take `CC(C)(C)[C@H](NC(=O)C(F)(F)F)C(=O)N1C[C@H]2[C@@H]([C@H]1C(=O)N[C@H](C#N)C[C@@H]1CCNC1=O)C2(C)C` [nirmatrelvir]: the “Inhibition of 3CLpro in HEK 293T cells: Fold change in IC50 (relative to WT)” value in assay [3] was 18.4.
